Measured values: paper PMC5128008, “Antimicrobial activity and stability of the D-amino acid substituted derivatives of antimicrobial peptide polybia-MPI” (AMB Express, 2016)
Where a SMILES comes first, the peptide text is derived from it. [ ]: non-standard residue; d: D form.

Test system: all tested bacterial and fungal strains
Experiment: MIC, broth microdilution, summary over the panel
Assay type: cell-based
Details: summary of Table 1, "almost in the range"
Method: The minimal inhibitory concentration (MIC) of the peptides was measured in triplicate by the standard broth microdilution method (Peterson et al. [1980]; Wang et al. [2012]). In brief, bacteria/fungi were cultured overnight to mid-logarithmic-phase in Mueller–Hinton broth (MHB)/Sabouraud dextrose broth. The cultures were diluted to a final concentration of 2 × 10^4 cfu/ml in fresh Mueller–Hinton broth (MHB)/Sabouraud dextrose broth. Each well of 96-well propylene microtitre plates was filled with 100 µl cell suspension and 100 μl peptide solution of twofold diluted serially. And the final concentrations of peptide mixtures ranged from 1 to 256 µM. Controls were done without peptides. After 18 h of incubation at 37 °C (bacteria)/35 °C (fungi), the minimal inhibitory concentration (MIC) of the peptides was evaluated by visible turbidity in each well.

## CC[C@@H](C)[C@@H](N)C(=O)N[C@H](CC(=O)O)C(=O)N[C@H](Cc1c[nH]c2ccccc12)C(=O)N[C@H](CCCCN)C(=O)N[C@H](CCCCN)C(=O)N[C@H](CC(C)C)C(=O)N[C@H](CC(C)C)C(=O)N[C@H](CC(=O)O)C(=O)N[C@H](C)C(=O)N[C@H](C)C(=O)N[C@H](CCCCN)C(=O)N[C@H](CCC(N)=O)C(=O)N[C@@H](C(=O)N[C@H](CC(C)C)C(N)=O)[C@H](C)CC [D-MPI] (H-[dI][dD][dW][dK][dK][dL][dL][dD][dA][dA][dK][dQ][dI][dL]-NH2)
  MIC values, range over all tested bacterial and fungal strains: 8 to 64 µM
